In patent US11716994B2, “Combinations of Yersinia entomophaga and pesticides or other substances” (priority 2017, dated 2023):
“And” between values parts separate entries of the source, which are not always exact repeats. Equal values may be shown once. Read-outs that look alike come from different tables or passages of the source.

Assays:
fall armyworm [1] = settings: fipronil 12 mg/L
Description: To produce cell free filtrates, cultures of Yersinia entomophaga grown in LB medium were centrifuged at 11,448 (g) for 10 minutes. The supernatant was decanted from the centrifuged pellet and filtered through a 0.22 μm filter. Assays were performed to determine concentrations of Yen-TC (toxin complex) using ELISA, and chitinase by measuring chitinase activity on specific substrates. […] This was done to estimate relative potency of the cell free filtrates. Insects were first pre-screened with a range of dilutions of cell free filtrates to select a concentration that provided moderate activity. […] Based on these initial screens, undiluted cell free filtrate was used for cabbage looper, fall armyworm, black cutworm, and Colorado potato beetle.
Cabbage leaf disks were dipped in either acetone (controls and Y. entomophaga alone treatments) or fipronil (Sigma 46451) at 12 mg/L in acetone. These were set to dry for 1 hr. […] After the cabbage disks had dried for 1 hr, a single 3rd instar fall armyworm was added to each individual cabbage disk. A total of 20 insects were evaluated for each treatment. Insects were observed daily and scored as live or dead.
Cabbage leaf disks were dipped in either acetone (controls and Y. entomophaga alone treatments) or esfenvalerate (Sigma 46277) at 56 mg/L in acetone. These were set to dry for 1 hr. […] After the cabbage disks had dried for 1 hr, a single 3rd instar fall armyworm was added to each individual cabbage disk. A total of 20 insects were evaluate for each treatment. Insects were observed daily and scored as live or dead.

fall armyworm [2] = assay: Leaf disk mortality assay, Y. entomophaga cells with chemical insecticides; settings: for mortality at 4 µg/mL: Spodoptera frugiperda, foliar; for % Mort. Chem.: Fipronil 4 mg/L

## N#Cc1nn(-c2c(Cl)cc(C(F)(F)F)cc2Cl)c(N)c1[S+]([O-])C(F)(F)F (stereo not shown) [Fipronil]
Fall armyworm [1]; 3rd instar fall armyworm, O43NEW undiluted filtrate, alone or combined
  LT50 (95% confidence intervals) in days: 51.74 (34.99-79.58) days
Fall armyworm [1]; Fall armyworm
  LT50 Chem.: 51.74 days
Fall armyworm [1]; Fall armyworm, 8 DAT
  % Mort. Chem.: 0%
Fall armyworm [2]; 3rd instar, fipronil 4 mg/L, isolate O24G3R 1×10^5 cfu/mL
  LT50 (95% confidence intervals) in days: 6.71 (6.15-7.32) days
Fall armyworm [2]; 3rd instar, fipronil 4 mg/L, isolate O24KEK 1×10^5 cfu/mL
  LT50 (95% confidence intervals) in days: 6.71 (6.15-7.31) days
Fall armyworm [2]; 3rd instar, fipronil 4 mg/L, isolate O43NEW 1×10^5 cfu/mL
  LT50 (95% confidence intervals): 8.86 days
Fall armyworm [2]; 3rd instar, fipronil 4 mg/L, isolate O333A4 1×10^5 cfu/mL
  LT50 (95% confidence intervals) in days: 6.71 (6.15-7.31) days
Fall armyworm [2]; 96 h, read-out: % Mortality (4DAT), 3rd instar, fipronil 4 mg/L, isolate O24G3R 1×10^5 cfu/mL
  mortality at 4 µg/mL: 5%
Fall armyworm [2]; 96 h, read-out: % Mortality (4DAT), 3rd instar, fipronil 4 mg/L, isolate O24KEK 1×10^5 cfu/mL
  mortality at 4 µg/mL: 5%
Fall armyworm [2]; 96 h, read-out: % Mortality (4DAT), 3rd instar, fipronil 4 mg/L, isolate O333A4 1×10^5 cfu/mL
  mortality at 4 µg/mL: 5%
Fall armyworm [2]; 120 h, read-out: % Mortality (5DAT), 3rd instar, fipronil 4 mg/L, isolate O24G3R 1×10^5 cfu/mL
  mortality at 4 µg/mL: 21%
Fall armyworm [2]; 120 h, read-out: % Mortality (5DAT), 3rd instar, fipronil 4 mg/L, isolate O24KEK 1×10^5 cfu/mL
  mortality at 4 µg/mL: 21%
Fall armyworm [2]; 120 h, read-out: % Mortality (5DAT), 3rd instar, fipronil 4 mg/L, isolate O43NEW 1×10^5 cfu/mL
  mortality at 4 µg/mL: 5%
Fall armyworm [2]; 120 h, read-out: % Mortality (5DAT), 3rd instar, fipronil 4 mg/L, isolate O333A4 1×10^5 cfu/mL
  mortality at 4 µg/mL: 21%
Fall armyworm [2]; 144 h, read-out: % Mortality (6DAT), 3rd instar, fipronil 4 mg/L, isolate O24KEK 1×10^5 cfu/mL
  mortality at 4 µg/mL: 39%
Fall armyworm [2]; 144 h, read-out: % Mortality (6DAT), 3rd instar, fipronil 4 mg/L, isolate O43NEW 1×10^5 cfu/mL
  mortality at 4 µg/mL: 20%
Fall armyworm [2]; 144 h, read-out: % Mortality (6DAT), 3rd instar, fipronil 4 mg/L, isolate O333A4 1×10^5 cfu/mL
  mortality at 4 µg/mL: 39%
Fall armyworm [2]; fall armyworm, 4 DAT (row with O24KEK)
  % Mort. Chem.: 5%
Fall armyworm [2]; fall armyworm, 4 DAT (row with O333A4)
  % Mort. Chem.: 5%
Fall armyworm [2]; fall armyworm, 5 DAT (row with O24G3R)
  % Mort. Chem.: 21%
Fall armyworm [2]; fall armyworm, 5 DAT (row with O43NEW)
  % Mort. Chem.: 5%
Fall armyworm [2]; fall armyworm, Fipronil alone 4 mg/L
  LT50 Chem.: 8.86 days and 6.71 days
